Assay results reported in ChEMBL document CHEMBL3822398, “Design, synthesis and in vitro biological evaluation of short-chain C12-sphinganine and its 1,2,3-triazole analogs as potential antimicrobial and anti-biofilm agents” (Eur J Med Chem, 2016).
In brackets after ≈: the same amount, converted by molar mass. Blank lines part the entries; values can stand above or below the compound they belong to.

Legend:
Format in all cases: functional
Staphylococcus aureus [1] = test: Antibacterial activity against Staphylococcus aureus MTCC 96 incubated for 24 hrs at 37 degC by well diffusion method; settings: MTCC 96, 24 h
Bacillus subtilis [2] = test: Antibacterial activity against Bacillus subtilis MTCC 121 incubated for 24 hrs at 37 degC by well diffusion method; settings: MTCC 121, 24 h
Staphylococcus aureus [3] = test: Antibacterial activity against Staphylococcus aureus MLS16 MTCC 2940 incubated for 24 hrs at 37 degC by well diffusion method; settings: MLS16 MTCC 2940, 24 h
Micrococcus luteus [4] = test: Antibacterial activity against Micrococcus luteus MTCC 2470 incubated for 24 hrs at 37 degC by well diffusion method; settings: MTCC 2470, 24 h
Raoultella planticola [5] = test: Antibacterial activity against Klebsiella planticola MTCC 530 incubated for 24 hrs at 37 degC by well diffusion method; settings: MTCC 530, 24 h
Escherichia coli [6] = test: Antibacterial activity against Escherichia coli MTCC 739 incubated for 24 hrs at 37 degC by well diffusion method; settings: MTCC 739, 24 h
Pseudomonas aeruginosa = test: Antibacterial activity against Pseudomonas aeruginosa MTCC 2453 incubated for 24 hrs at 37 degC by well diffusion method; settings: MTCC 2453, 24 h
Candida albicans [7] = test: Antifungal activity against Candida albicans MTCC 183 incubated for 24 hrs at 30 degC by well diffusion method; settings: MTCC 183, 24 h
Candida albicans [8] = test: Antifungal activity against Candida albicans MTCC 227 incubated for 24 hrs at 30 degC by well diffusion method; settings: MTCC 227, 24 h
Candida albicans [9] = test: Antifungal activity against Candida albicans MTCC 854 incubated for 24 hrs at 30 degC by well diffusion method; settings: MTCC 854, 24 h
Candida albicans [10] = test: Antifungal activity against Candida albicans MTCC 1637 incubated for 24 hrs at 30 degC by well diffusion method; settings: MTCC 1637, 24 h
Candida albicans [11] = test: Antifungal activity against Candida albicans MTCC 3017 incubated for 24 hrs at 30 degC by well diffusion method; settings: MTCC 3017, 24 h
Candida albicans [12] = test: Antifungal activity against Candida albicans MTCC 3018 incubated for 24 hrs at 30 degC by well diffusion method; settings: MTCC 3018, 24 h
Candida albicans [13] = test: Antifungal activity against Candida albicans MTCC 3958 incubated for 24 hrs at 30 degC by well diffusion method; settings: MTCC 3958, 24 h
Candida albicans [14] = test: Antifungal activity against Candida albicans MTCC 4748 incubated for 24 hrs at 30 degC by well diffusion method; settings: MTCC 4748, 24 h
Candida albicans [15] = test: Antifungal activity against Candida albicans MTCC 7315 incubated for 24 hrs at 30 degC by well diffusion method; settings: MTCC 7315, 24 h
Candida parapsilosis [16] = test: Antifungal activity against Candida parapsilosis MTCC 1744 incubated for 24 hrs at 30 degC by well diffusion method; settings: Lodderomyces parapsilosis, MTCC 1744, 24 h
[Candida] aaseri [17] = Antifungal activity against Candida aaseri MTCC 1962 incubated for 24 hrs at 30 degC by well diffusion method; settings: Yamadazyma aaseri, MTCC 1962, 24 h
Nakaseomyces glabratus [18] = test: Antifungal activity against Candida glabrata MTCC 3019 incubated for 24 hrs at 30 degC by well diffusion method; settings: MTCC 3019, 24 h
Pichia kudriavzevii [19] = test: Antifungal activity against Candida krusei MTCC 3020 incubated for 24 hrs at 30 degC by well diffusion method; settings: MTCC 3020, 24 h
Pichia sporocuriosa [20] = test: Antifungal activity against Issatchenkia hanoiensis MTCC 4755 incubated for 24 hrs at 30 degC by well diffusion method; settings: MTCC 4755, 24 h
Staphylococcus aureus [21] = test: Bactericidal activity against Staphylococcus aureus MTCC 96 incubated for 24 hrs; settings: MTCC 96, 24 h
Bacillus subtilis [22] = test: Bactericidal activity against Bacillus subtilis MTCC 121 incubated for 24 hrs; settings: MTCC 121, 24 h
Staphylococcus aureus [23] = test: Bactericidal activity against Staphylococcus aureus MLS16 MTCC 2940 incubated for 24 hrs; settings: MLS16 MTCC 2940, 24 h
Micrococcus luteus [24] = test: Bactericidal activity against Micrococcus luteus MTCC 2470 incubated for 24 hrs; settings: MTCC 2470, 24 h
Raoultella planticola [25] = test: Bactericidal activity against Klebsiella planticola MTCC 530 incubated for 24 hrs; settings: MTCC 530, 24 h
Escherichia coli [26] = test: Bactericidal activity against Escherichia coli MTCC 739 incubated for 24 hrs; settings: MTCC 739, 24 h
Candida albicans [27] = test: Fungicidal activity against Candida albicans MTCC 183 incubated for 24 hrs; settings: MTCC 183, 24 h
Candida albicans [28] = test: Fungicidal activity against Candida albicans MTCC 227 incubated for 24 hrs; settings: MTCC 227, 24 h
Candida albicans [29] = test: Fungicidal activity against Candida albicans MTCC 854 incubated for 24 hrs; settings: MTCC 854, 24 h
Candida albicans [30] = test: Fungicidal activity against Candida albicans MTCC 1637 incubated for 24 hrs; settings: MTCC 1637, 24 h
Candida albicans [31] = test: Fungicidal activity against Candida albicans MTCC 3017 incubated for 24 hrs; settings: MTCC 3017, 24 h
Candida albicans [32] = test: Fungicidal activity against Candida albicans MTCC 3018 incubated for 24 hrs; settings: MTCC 3018, 24 h
Candida albicans [33] = test: Fungicidal activity against Candida albicans MTCC 3958 incubated for 24 hrs; settings: MTCC 3958, 24 h
Candida albicans [34] = test: Fungicidal activity against Candida albicans MTCC 4748 incubated for 24 hrs; settings: MTCC 4748, 24 h
Candida albicans [35] = test: Fungicidal activity against Candida albicans MTCC 7315 incubated for 24 hrs; settings: MTCC 7315, 24 h
Candida parapsilosis [36] = test: Fungicidal activity against Candida parapsilosis MTCC 1744 incubated for 24 hrs; settings: Lodderomyces parapsilosis, MTCC 1744, 24 h
[Candida] aaseri [37] = Fungicidal activity against Candida aaseri MTCC 1962 incubated for 24 hrs; settings: Yamadazyma aaseri, MTCC 1962, 24 h
Nakaseomyces glabratus [38] = test: Fungicidal activity against Candida glabrata MTCC 3019 incubated for 24 hrs; settings: MTCC 3019, 24 h
Pichia kudriavzevii [39] = test: Fungicidal activity against Candida krusei MTCC 3020 incubated for 24 hrs; settings: MTCC 3020, 24 h
Pichia sporocuriosa [40] = test: Fungicidal activity against Issatchenkia hanoiensis MTCC 4755 incubated for 24 hrs; settings: MTCC 4755, 24 h

- MIC (Staphylococcus aureus [1]): > 250 µg/mL
- MIC (Bacillus subtilis [2]): > 250 µg/mL
- MIC (Staphylococcus aureus [3]): 31.2 µg/mL (≈ 144 µM)
- MIC (Micrococcus luteus [4]): 3.9 µg/mL (≈ 17.9 µM)
- MIC (Escherichia coli [6]): 15.6 µg/mL (≈ 71.8 µM)
- MIC (Pseudomonas aeruginosa): > 250 µg/mL
- MIC (Candida albicans [7]): 15.6 µg/mL (≈ 71.8 µM)
- MIC (Candida albicans [8]): 31.2 µg/mL (≈ 144 µM)
- MIC (Candida albicans [9]): 31.2 µg/mL (≈ 144 µM)
- MIC (Candida albicans [10]): 15.6 µg/mL (≈ 71.8 µM)
- MIC (Candida albicans [11]): 15.6 µg/mL (≈ 71.8 µM)
- MIC (Candida albicans [12]): 7.8 µg/mL (≈ 35.9 µM)
- MIC (Candida albicans [13]): 15.6 µg/mL (≈ 71.8 µM)
- MIC (Candida albicans [14]): 31.2 µg/mL (≈ 144 µM)
- MIC (Candida albicans [15]): 31.2 µg/mL (≈ 144 µM)
- MIC (Candida parapsilosis [16]): 62.5 µg/mL (≈ 288 µM)
- MIC ([Candida] aaseri [17]): 15.6 µg/mL (≈ 71.8 µM)
- MIC (Nakaseomyces glabratus [18]): 7.8 µg/mL (≈ 35.9 µM)
- MIC (Pichia kudriavzevii [19]): 15.6 µg/mL (≈ 71.8 µM)
- MIC (Pichia sporocuriosa [20]): 15.6 µg/mL (≈ 71.8 µM)
Structure (SMILES): CCCCCCCCC[C@@H](O)[C@@H](N)CO
- MIC (Raoultella planticola [5]): 15.6 µg/mL (≈ 71.8 µM)
- MBC (Staphylococcus aureus [21]): > 250 µg/mL
- MBC (Bacillus subtilis [22]): > 250 µg/mL
- MBC (Staphylococcus aureus [23]): 31.2 µg/mL (≈ 144 µM)
- MBC (Micrococcus luteus [24]): 7.8 µg/mL (≈ 35.9 µM)
- MBC (Raoultella planticola [25]): 31.2 µg/mL (≈ 144 µM)
- MBC (Escherichia coli [26]): 31.2 µg/mL (≈ 144 µM)
- MFC (Candida albicans [27]): 15.6 µg/mL (≈ 71.8 µM)
- MFC (Candida albicans [28]): 62.5 µg/mL (≈ 288 µM)
- MFC (Candida albicans [29]): 31.2 µg/mL (≈ 144 µM)
- MFC (Candida albicans [30]): 15.6 µg/mL (≈ 71.8 µM)
- MFC (Candida albicans [31]): 31.2 µg/mL (≈ 144 µM)
- MFC (Candida albicans [32]): 15.6 µg/mL (≈ 71.8 µM)
- MFC (Candida albicans [33]): 31.2 µg/mL (≈ 144 µM)
- MFC (Candida albicans [34]): 31.2 µg/mL (≈ 144 µM)
- MFC (Candida albicans [35]): 62.5 µg/mL (≈ 288 µM)
- MFC (Candida parapsilosis [36]): 62.5 µg/mL (≈ 288 µM)
- MFC ([Candida] aaseri [37]): 31.2 µg/mL (≈ 144 µM)
- MFC (Nakaseomyces glabratus [38]): 7.8 µg/mL (≈ 35.9 µM)
- MFC (Pichia kudriavzevii [39]): 31.2 µg/mL (≈ 144 µM)
- MFC (Pichia sporocuriosa [40]): 15.6 µg/mL (≈ 71.8 µM)

- MIC (Staphylococcus aureus [1]): 7.8 µg/mL (≈ 22.6 µM)
- MIC (Bacillus subtilis [2]): 15.6 µg/mL (≈ 45.2 µM)
- MIC (Staphylococcus aureus [3]): 15.6 µg/mL (≈ 45.2 µM)
- MIC (Micrococcus luteus [4]): 3.9 µg/mL (≈ 11.3 µM)
- MIC (Escherichia coli [6]): > 250 µg/mL
- MIC (Pseudomonas aeruginosa): > 250 µg/mL
- MIC (Candida albicans [7]): 62.5 µg/mL (≈ 181 µM)
- MIC (Candida albicans [8]): 31.2 µg/mL (≈ 90.3 µM)
- MIC (Candida albicans [9]): 62.5 µg/mL (≈ 181 µM)
- MIC (Candida albicans [10]): 125 µg/mL (≈ 362 µM)
- MIC (Candida albicans [11]): 62.5 µg/mL (≈ 181 µM)
- MIC (Candida albicans [12]): 125 µg/mL (≈ 362 µM)
- MIC (Candida albicans [13]): 62.5 µg/mL (≈ 181 µM)
- MIC (Candida albicans [14]): 125 µg/mL (≈ 362 µM)
- MIC (Candida albicans [15]): 62.5 µg/mL (≈ 181 µM)
- MIC (Candida parapsilosis [16]): 31.2 µg/mL (≈ 90.3 µM)
- MIC ([Candida] aaseri [17]): 31.2 µg/mL (≈ 90.3 µM)
- MIC (Nakaseomyces glabratus [18]): 62.5 µg/mL (≈ 181 µM)
- MIC (Pichia kudriavzevii [19]): 62.5 µg/mL (≈ 181 µM)
- MIC (Pichia sporocuriosa [20]): 62.5 µg/mL (≈ 181 µM)
Structure (SMILES): CCCCCCCCC[C@@H](O)[C@H](CO)n1cc(-c2ccccc2)nn1
- MIC (Raoultella planticola [5]): 31.2 µg/mL (≈ 90.3 µM)
- MBC (Staphylococcus aureus [21]): 15.6 µg/mL (≈ 45.2 µM)
- MBC (Bacillus subtilis [22]): 15.6 µg/mL (≈ 45.2 µM)
- MBC (Staphylococcus aureus [23]): 31.2 µg/mL (≈ 90.3 µM)
- MBC (Micrococcus luteus [24]): 7.8 µg/mL (≈ 22.6 µM)
- MBC (Raoultella planticola [25]): 62.5 µg/mL (≈ 181 µM)
- MBC (Escherichia coli [26]): > 250 µg/mL
- MFC (Candida albicans [27]): 62.5 µg/mL (≈ 181 µM)
- MFC (Candida albicans [28]): 62.5 µg/mL (≈ 181 µM)
- MFC (Candida albicans [29]): 62.5 µg/mL (≈ 181 µM)
- MFC (Candida albicans [30]): 125 µg/mL (≈ 362 µM)
- MFC (Candida albicans [31]): 125 µg/mL (≈ 362 µM)
- MFC (Candida albicans [32]): 125 µg/mL (≈ 362 µM)
- MFC (Candida albicans [33]): 125 µg/mL (≈ 362 µM)
- MFC (Candida albicans [34]): 125 µg/mL (≈ 362 µM)
- MFC (Candida albicans [35]): 62.5 µg/mL (≈ 181 µM)
- MFC (Candida parapsilosis [36]): 62.5 µg/mL (≈ 181 µM)
- MFC ([Candida] aaseri [37]): 31.2 µg/mL (≈ 90.3 µM)
- MFC (Nakaseomyces glabratus [38]): 62.5 µg/mL (≈ 181 µM)
- MFC (Pichia kudriavzevii [39]): 62.5 µg/mL (≈ 181 µM)
- MFC (Pichia sporocuriosa [40]): 125 µg/mL (≈ 362 µM)
